Common to all, as to assay type: cell-based
For one data set, the system named is JURKAT. The data set is described as follows: In vitro cytotoxicity, growth inhibition by counting surviving cells, JURKAT. To be noted: Homo sapiens, cells incubated with the compound for 1 h, at least two experiments, read-out: IC50 (50% inhibitory concentration), Mean ± SE. The method, then: (§1) 1. The results of in vivo test of Ia on disseminated P388/DX murine leukemia are shown in Tab.2.
(§2) ^1 Cells incubated with the compound for 1 h.
(§3) ^2 50% inhibitory concentration represents the mean ± SE from
(§4) dose-response curves of at least two experiments
(§5) ^3 Growth inhibition determined by counting surviving cells.

Another data set relates to LoVo. Description: In vitro cytotoxicity, growth inhibition by SRB colorimetric assay, LoVo. Particulars: Homo sapiens, cells incubated with the compound for 1 h, at least two experiments, read-out: IC50 (50% inhibitory concentration), Mean ± SE. Here is the method: as §1, §2, §3, §4
^4 Growth inhibition determined by SRB colorimetric assay.
Background: The SRB assay estimates cell density from bound dye.

Data set [1] concerns panel of murine and human tumor cell lines. The data set is described as follows: In vitro cytotoxicity on a panel of murine and human tumor cell lines.
Text: The compounds according to the invention are useful in methods of treatment of the human or animal body by therapy. They are useful as anti-tumor agents. They are useful in the treatment of leukemia and solid tumors, such as colon, colon-rectal, ovarian, mammary, prostate, lung, kidney and also melanoma tumors. A human can therefore be treated by a method comprising administering thereto a therapeutically effective amount of a compound of the invention. The condition of the human patient can thus be improved. The dosage to be given can be ascertained using known dosage ranges in the field of anthracyclines, modified by reference to the activity shown by the present compounds in in vitro and in vivo anti-tumor tests. Suitable dosages are generally in the range of 1 to 200 mg/m^2 body surface, preferably from 1 to 100 mg/m^2, depending on the nature and severity of the disease being treated and on the general condition of the patient. The compounds of formula I were tested and found active in vitro against a panel of murine and human tumor cell lines, and in vivo on disseminated P388/DX murine leukemia.
as §1

A further data set deals with L1210. Description: In vitro cytotoxicity, growth inhibition by counting surviving cells, L1210. Particulars: Mus musculus, cells incubated with the compound for 1 h, at least two experiments, read-out: IC50 (50% inhibitory concentration), Mean ± SE. Here is the method:
as §1, §2, §3, §4, §5

The test system of a further data set is CEM. Description: In vitro cytotoxicity, growth inhibition by counting surviving cells, CEM. To be noted: Homo sapiens, CCRF-CEM, cells incubated with the compound for 1 h, at least two experiments, read-out: IC50 (50% inhibitory concentration), Mean ± SE. Here is the method: as §1, §2, §3, §4, §5

For the molecule `CC(O)[C@]1(O)Cc2c(O)c3c(c(O)c2[C@@H](O[C@H]2C[C@H](N4CC4)[C@H](OS(C)(=O)=O)[C@H](C)O2)C1)C(=O)c1ccccc1C3=O` (mixture of isomers) [Ia, 13(R/S)-Dihydro-4-Demethoxy-3'-Deamino-3'-Aziridinyl-4'-Methansulfonyl Daunorubicin], the IC50 in the data set with JURKAT stood at 4.87 ± 0.7 ng/mL; in the data set with LoVo, 20.3 ± 2 ng/mL; in the data set with L1210 it was 3.76 ± 0.13 ng/mL; in the data set with CEM it was 5.86 ± 0.4 ng/mL. In addition, in data set [1], the “cytotoxicity / in vitro activity in words” value was “high cytotoxicity”.
